Measurements as given in patent US6610665B1 (Smithkline Beecham Corporation, priority 1998, dated 2003).
Counter-ions that a name gives are not always drawn.

Legend:
Assay type in all cases: cell-based
Details in all cases: ratio to NECA
adenosine 3 receptor = target: T1, adenosine 3 receptor (Homo sapiens, UniProt P0DMS8); assay: Agonist activity, CHO cells transfected with human adenosine receptor and CRE-SPAP reporter; forskolin-enhanced cAMP (A3)
T1 construct: expressed in transfected cells; host or cells: CHO cells
T1 sequence (P0DMS8 1-318): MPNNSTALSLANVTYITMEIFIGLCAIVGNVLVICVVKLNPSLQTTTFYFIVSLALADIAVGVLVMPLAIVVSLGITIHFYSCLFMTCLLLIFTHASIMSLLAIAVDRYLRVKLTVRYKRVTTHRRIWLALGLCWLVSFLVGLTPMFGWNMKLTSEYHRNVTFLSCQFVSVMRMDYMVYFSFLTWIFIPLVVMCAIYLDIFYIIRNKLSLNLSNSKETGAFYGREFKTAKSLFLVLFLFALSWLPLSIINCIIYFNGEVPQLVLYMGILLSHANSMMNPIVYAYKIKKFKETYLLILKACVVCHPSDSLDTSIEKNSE
Protocol: (§1) (1) Agonist activity against adenosine 2a, adenosine 1 and adenosine 3 receptor subtypes.
(§2) Agonist selectivity of compounds against other human adenosine receptors is determined using Chinese hamster ovary (CHO) cells transfected with the gene for the relevant human adenosine receptor following a method based on that of Castanon and Spevak, 1994. The CHO cells are also transfected with cyclic AMP response elements promoting the gene for secreted placental alkaline phosphatase (SPAP) (Wood, 1995). The effect of test compounds may be determined by their effects on basal levels of CAMP (A2a) or on forskolin-enhanced cAMP (A1 and A3) as reflected by changes in levels of SPAP. EC50 values for compounds may then be determined as a ratio to that of the non-selective agonist N-ethyl carboxamide adenosine (NECA).

adenosine 2a receptor = target: T2, adenosine 2a receptor (Homo sapiens, UniProt P29274); assay: Agonist activity, CHO cells transfected with human adenosine receptor and CRE-SPAP reporter; basal cAMP (A2a)
T2 construct: expressed in transfected cells; host or cells: CHO cells
T2 sequence (P29274 whole entry): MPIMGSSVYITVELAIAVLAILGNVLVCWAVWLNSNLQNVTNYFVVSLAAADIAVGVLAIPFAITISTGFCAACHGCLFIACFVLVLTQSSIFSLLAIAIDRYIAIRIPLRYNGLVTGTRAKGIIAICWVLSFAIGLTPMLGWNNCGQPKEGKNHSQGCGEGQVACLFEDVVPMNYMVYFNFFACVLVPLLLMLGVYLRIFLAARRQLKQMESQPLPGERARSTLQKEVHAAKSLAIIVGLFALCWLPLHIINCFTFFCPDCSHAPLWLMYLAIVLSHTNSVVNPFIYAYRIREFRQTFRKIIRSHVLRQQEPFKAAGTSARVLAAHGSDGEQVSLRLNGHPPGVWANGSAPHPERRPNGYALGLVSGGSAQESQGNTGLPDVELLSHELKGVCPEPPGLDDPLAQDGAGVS
Protocol: as §1, §2

adenosine 1 receptor = target: T3, adenosine 1 receptor (Homo sapiens, UniProt P30542); assay: Agonist activity, CHO cells transfected with human adenosine receptor and CRE-SPAP reporter; forskolin-enhanced cAMP (A1)
T3 construct: expressed in transfected cells; host or cells: CHO cells
T3 sequence (P30542 1-326): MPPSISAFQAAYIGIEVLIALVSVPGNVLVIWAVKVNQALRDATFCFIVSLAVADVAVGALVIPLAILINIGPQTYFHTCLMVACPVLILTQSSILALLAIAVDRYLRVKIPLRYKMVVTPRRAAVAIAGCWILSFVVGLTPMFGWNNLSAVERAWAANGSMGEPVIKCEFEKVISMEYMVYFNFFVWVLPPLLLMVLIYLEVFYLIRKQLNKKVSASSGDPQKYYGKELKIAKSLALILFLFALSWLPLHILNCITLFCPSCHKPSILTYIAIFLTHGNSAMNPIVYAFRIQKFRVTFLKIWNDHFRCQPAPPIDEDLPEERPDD
Protocol: as §1, §2

[1] = * data are minimum values since preparation was found, after testing, to contain an inactive impurity

A3, EC50 as a ratio of that of NECA (adenosine 3 receptor; CHO cells, SPAP readout) | A2a, EC50 as a ratio of that of NECA (adenosine 2a receptor; CHO cells, SPAP readout) | A1, EC50 as a ratio of that of NECA (adenosine 1 receptor; CHO cells, SPAP readout) | SMILES | A3, EC50 as a ratio of that of NECA (adenosine 3 receptor; [1]) | A2a, EC50 as a ratio of that of NECA (adenosine 2a receptor; [1]) | A1, EC50 as a ratio of that of NECA (adenosine 1 receptor; [1])
 |  |  | CCc1noc([C@H]2O[C@@H](n3cnc4c(NC(CC)CC)nc(NCCN5CCOCC5)nc43)[C@H](O)[C@@H]2O)n1.O=CO [Example 19, (2S,3S,4R,5R)-2-(3-Ethyl-[1,2,4]oxadiazol-5-yl)-5-[6-(1-ethyl-propylamino)-2-(2-morpholin-4-yl-ethylamino)-purin-9-yl]-tetrahydro-furan-3,4-diol formate] | >694 | 34.52 | >5860
 |  |  | CCc1noc([C@H]2O[C@@H](n3cnc4c(NC(CC)CC)nc(NCCN5CCCCC5)nc43)[C@H](O)[C@@H]2O)n1.O=CO [Example 20, (2S,3S,4R,5R)-2-(3-Ethyl-[1,2,4]oxadiazol-5-yl)-5-[6-(1-ethyl-propylamino)-2-(2-piperidin-1-yl-ethylamino)-purin-9-yl]-tetrahydro-furan-3,4-diol formate] | >694 | 17.08 | >=1853
 |  |  | CCc1noc([C@H]2O[C@@H](n3cnc4c(NC(CC)CC)nc(NCCc5ccccn5)nc43)[C@H](O)[C@@H]2O)n1.O=CO [Example 21, (2S,3S,4R,5R)-2-(3-Ethyl-[1,2,4]oxadiazol-5-yl)-5-[6-(1-ethyl-propylamino)-2-(2-pyridin-2-yl-ethylamino)-purin-9-yl]-tetrahydro-furan-3,4-diol formate] | >303 | 9.39 | >5090
>193 | 22.25 | 78.28 | CCC(CC)Nc1nc(NC2CCCC2)nc2c1ncn2[C@@H]1O[C@H](c2nc(C)no2)[C@@H](O)[C@H]1O.O=CO [Example 22] |  |  | 
>284 | 18.13 | >5264 | CCC(CC)Nc1nc(N[C@H]2CCC[C@@H]2O)nc2c1ncn2[C@@H]1O[C@H](c2nc(C)no2)[C@@H](O)[C@H]1O.O=CO [Example 24, (2R,3R,4S,5S)-2-[6-(1-Ethyl-propylamino)-2-(2S-hydroxy-cyclopent-(S)-ylamino)-purin-9-yl]-5-(3-methyl-[1,2,4]oxadiazol-5-yl)-tetrahydro-furan-3,4-diol formate] |  |  | 
>163 | 19.35 | 515.35 | CCc1noc([C@H]2O[C@@H](n3cnc4c(NC(CC)CC)nc(N[C@H]5CCC[C@@H]5O)nc43)[C@H](O)[C@@H]2O)n1.O=CO [Example 25, (2S,3S,4R,5R)-2-(3-Ethyl-[1,2,4]oxadiazol-5-yl)-5-[6-(1-ethyl-propylamino)-2-(2S-hydroxy-cyclopent-(S)-ylamino)-purin-9-yl]-tetrahydro-furan-3,4-diol formate] |  |  | 
 |  |  | CCC(CC)Nc1nc(NC2CCNC2)nc2c1ncn2C1OC(c2nc(C)no2)C(O)C1O [Example 26, (2R,3R,4S,5S)-2-[6-(1-Ethyl-propylamino)-2-(pyrrolidin-3R-ylamino)-purin-9-yl]-5-(3-methyl-[1,2,4]oxadiazol-5-yl)-tetrahydro-furan-3,4-diol formate] | >284 | 5.18 | >5264
 |  |  | CCc1noc(C2OC(n3cnc4c(NC(CC)CC)nc(NC5CCNC5)nc43)C(O)C2O)n1 [Example 27, (2S,3S,4R,5R)-2-(3-Ethyl-[1,2,4]oxadiazol-5-yl)-5-[6-(1-ethyl-propylamino)-2-(pyrrolidin-3R-ylamino)-purin-9-yl]-tetrahydro-furan-3,4-diol formate] | >284 | 10.5 | 263.14
 |  |  | CCC(CC)Nc1nc(NC(CO)C(C)C)nc2c1ncn2C1OC(c2nc(C)no2)C(O)C1O [Example 28, (2R,3R,4S,5S)-2-[6-(1-Ethyl-propylamino)-2-(1S-hydroxymethyl-2-methyl-propylamino)-purin-9-yl]-5-(3-methyl-[1,2,4]oxadiazol-5-yl)-tetrahydro-furan-3,4-diol formate] | >284 | 5.49 | >5263
 |  |  | CCc1noc([C@H]2O[C@@H](n3cnc4c(NC(CC)CC)nc(N[C@H]5CC[C@H](N)CC5)nc43)[C@H](O)[C@@H]2O)n1.O=CO [Example 29, (2R,3R,4S,5S)-2-[2-(trans-4-Amino-cyclohexylamino)-6-(1-ethyl-propylamino)-purin-9-yl]-5-(3-ethyl-[1,2,4]oxadiazol-5-yl)-tetrahydro-furan-3,4-diol formate] | >117 | 8.92 | 989.5
 |  |  | Cc1noc(C2OC(n3cnc4c(N)nc(NCCc5ccccn5)nc43)C(O)C2O)n1.O=CO.O=CO (stereo not drawn) [Example 30] | >215 | 19.54 | 1460.7
 |  |  | CCCc1noc([C@H]2O[C@@H](n3cnc4c(NCC(c5ccccc5)c5ccccc5)nc(NCCc5cn(C)cn5)nc43)[C@H](O)[C@@H]2O)n1.O=CO [Example 33, (2R,3R,4S,5S)-2-{6-(2,2-Diphenyl-ethylamino)-2-[2-(1-methyl-1H-imidazol-4-yl)-ethylamino]-purin-9-yl}-5-(3-propyl-[1,2,4]oxadiazol-5-yl)-tetrahydro-furan-3,4-diol formate] | >259 | 8.35 | ≧815.9
 |  |  | Cc1noc(C2OC(n3cnc4c(NCC(c5ccccc5)c5ccccc5)nc(NCCc5c[nH]cn5)nc43)C(O)C2O)n1 [Example 34, (2R,3R,4S,5S)-2-{6-(2,2-Diphenyl-ethylamino)-2-[2-(1H-imidazol-4-yl)-ethylamino]-purin-9-yl}-5-(3-methyl-[1,2,4oxadiazol-5-yl)-tetrahydro-furan-3,4-diol formate] | 231.1 | 8.31 | 3270.8
>194 | 7.89 | 912.1 | CCC(CC)Nc1nc(NCCN2CCCCC2)nc2c1ncn2C1OC(c2nc(C3CC3)no2)C(O)C1O [Example 35, (2S,3S,4R,5R)-2-(3-Cyclopropyl-[1,2,4]oxadiazol-5-yl)-5-[6-(1-ethyl-propylamino)-2-(2-piperidin-1-yl-ethylamino)-purin-9-yl]-tetrahydro-furan-3,4-diolldiformate] |  |  | 
>194 | 20.13 | >9364 | CCC(CC)Nc1nc(NCCN2CCOCC2)nc2c1ncn2C1OC(c2nc(C3CC3)no2)C(O)C1O.O=CO.O=CO (stereo not drawn) [Example 36] |  |  | 

SMILES | A3, EC50 as a ratio of that of NECA (adenosine 3 receptor; CHO cells, SPAP readout) | A2a, EC50 as a ratio of that of NECA (adenosine 2a receptor; CHO cells, SPAP readout) | A1, EC50 as a ratio of that of NECA (adenosine 1 receptor; CHO cells, SPAP readout) | A3, EC50 as a ratio of that of NECA (adenosine 3 receptor; [1]) | A2a, EC50 as a ratio of that of NECA (adenosine 2a receptor; [1]) | A1, EC50 as a ratio of that of NECA (adenosine 1 receptor; [1])
CCc1noc([C@H]2O[C@@H](n3cnc4c(NC(CC)CC)nc(NC5CCCC5)nc43)[C@H](O)[C@@H]2O)n1.O=CO [Example 23, (2R,3R,4S,5S)-2-[2-Cyclopentylamino-6-(1-ethyl-propylamino)-purin-9-yl]-5-(3-ethyl-[1,2,4]oxadiazol-5-yl)-tetrahydro-furan-3,4-diol formate] | >163 | 12.72 | 17.02 |  |  | 
CCc1noc([C@H]2O[C@@H](n3cnc4c(NCC(c5ccccc5)c5ccccc5)nc(NCCN5CCOCC5)nc43)[C@H](O)[C@@H]2O)n1.O=CO [Example 31, (2R,3R,4S,5S)-2-[6-(2,2-Diphenyl-ethylamino)-2-(2-morpholin-4-yl-ethylamino)-purin-9-yl]-5-(3-ethyl-[1,2,4]oxadiazol-5-yl)-tetrahydro-furan-3,4-diol formate] | >262 | 30.6 | 6452 |  |  | 
CCc1noc([C@H]2O[C@@H](n3cnc4c(NCC(c5ccccc5)c5ccccc5)nc(NCCN5CCCCC5)nc43)[C@H](O)[C@@H]2O)n1.O=CO [Example 32, (2R,3R,4S,5S)-2-[6-(2,2-Diphenyl-ethylamino)-2-(2-piperidin-1-yl-ethylamino)-purin-9-yl]-5-(3-ethyl-[1,2,4]oxadiazol-5-yl)-tetrahydro-furan-3,4-diol formate] | >258 | 31.4 | 7521 |  |  | 
CCC(CC)Nc1nc(NCCc2ccccn2)nc2c1ncn2[C@@H]1O[C@H](c2nc(C3CC3)no2)[C@@H](O)[C@H]1O.O=CO.O=CO [Example 37] | >87 | 49.45 | >10402 |  |  | 
